According to the NIST ThermoML archive (doi:10.1021/je060441j):
± gives the expanded uncertainty stated by the source.

Test: xn = mol fraction of the nth substance listed
Conditions: 101 kPa, Liquid

Compound: ClC(Cl)Cl [trichloromethane] + CO
- mass density (288.15 K, x2 = 0): 1498.08 ± 0.47 kg/m3
- mass density (288.15 K, x2 = 0.0298): 1487.35 ± 0.47 kg/m3
- mass density (288.15 K, x2 = 0.0492): 1480.27 ± 0.46 kg/m3
- mass density (288.15 K, x2 = 0.0724): 1471.76 ± 0.45 kg/m3
- mass density (288.15 K, x2 = 0.0942): 1463.44 ± 0.45 kg/m3
- mass density (288.15 K, x2 = 0.1282): 1450.19 ± 0.44 kg/m3
- mass density (288.15 K, x2 = 0.1586): 1437.96 ± 0.43 kg/m3
- mass density (288.15 K, x2 = 0.2444): 1401.12 ± 0.4 kg/m3
- mass density (288.15 K, x2 = 0.2956): 1377.44 ± 0.38 kg/m3
- mass density (288.15 K, x2 = 0.3383): 1356.51 ± 0.37 kg/m3
- mass density (288.15 K, x2 = 0.398): 1325.26 ± 0.35 kg/m3
- mass density (288.15 K, x2 = 0.4393): 1302.23 ± 0.33 kg/m3
- mass density (288.15 K, x2 = 0.4983): 1267.1 ± 0.31 kg/m3
- mass density (288.15 K, x2 = 0.5505): 1233.39 ± 0.29 kg/m3
- mass density (288.15 K, x2 = 0.6022): 1197.32 ± 0.27 kg/m3
- mass density (288.15 K, x2 = 0.6352): 1172.94 ± 0.26 kg/m3
- mass density (288.15 K, x2 = 0.6999): 1121.29 ± 0.23 kg/m3
- mass density (288.15 K, x2 = 0.75): 1077.55 ± 0.23 kg/m3
- mass density (288.15 K, x2 = 0.7996): 1030.62 ± 0.21 kg/m3
- mass density (288.15 K, x2 = 0.8193): 1011.24 ± 0.22 kg/m3
- mass density (288.15 K, x2 = 0.8534): 975.44 ± 0.24 kg/m3
- mass density (288.15 K, x2 = 0.91): 911.539 ± 0.27 kg/m3
- mass density (288.15 K, x2 = 0.93): 887.399 ± 0.29 kg/m3
- mass density (288.15 K, x2 = 0.9542): 857.083 ± 0.32 kg/m3
- mass density (293.15 K, x2 = 0): 1488.64 ± 0.46 kg/m3
- mass density (293.15 K, x2 = 0.0298): 1477.93 ± 0.46 kg/m3
- mass density (293.15 K, x2 = 0.0492): 1470.88 ± 0.45 kg/m3
- mass density (293.15 K, x2 = 0.0724): 1462.41 ± 0.45 kg/m3
- mass density (293.15 K, x2 = 0.0942): 1454.14 ± 0.44 kg/m3
- mass density (293.15 K, x2 = 0.1282): 1440.98 ± 0.43 kg/m3
- mass density (293.15 K, x2 = 0.1586): 1428.83 ± 0.42 kg/m3
- mass density (293.15 K, x2 = 0.2444): 1392.24 ± 0.39 kg/m3
- mass density (293.15 K, x2 = 0.2956): 1368.73 ± 0.38 kg/m3
- mass density (293.15 K, x2 = 0.3383): 1347.95 ± 0.36 kg/m3
- mass density (293.15 K, x2 = 0.398): 1316.93 ± 0.34 kg/m3
- mass density (293.15 K, x2 = 0.4393): 1294.08 ± 0.33 kg/m3
- mass density (293.15 K, x2 = 0.4983): 1259.22 ± 0.3 kg/m3
- mass density (293.15 K, x2 = 0.5505): 1225.77 ± 0.28 kg/m3
- mass density (293.15 K, x2 = 0.6022): 1190.01 ± 0.26 kg/m3
- mass density (293.15 K, x2 = 0.6352): 1165.78 ± 0.26 kg/m3
- mass density (293.15 K, x2 = 0.6999): 1114.52 ± 0.23 kg/m3
- mass density (293.15 K, x2 = 0.75): 1071.1 ± 0.22 kg/m3
- mass density (293.15 K, x2 = 0.7996): 1024.5 ± 0.21 kg/m3
- mass density (293.15 K, x2 = 0.8193): 1005.11 ± 0.22 kg/m3
- mass density (293.15 K, x2 = 0.8534): 969.692 ± 0.24 kg/m3
- mass density (293.15 K, x2 = 0.91): 906.188 ± 0.27 kg/m3
- mass density (293.15 K, x2 = 0.93): 882.191 ± 0.29 kg/m3
- mass density (293.15 K, x2 = 0.9542): 852.051 ± 0.32 kg/m3
- mass density (298.15 K, x2 = 0): 1479.15 ± 0.45 kg/m3
- mass density (298.15 K, x2 = 0.0298): 1468.46 ± 0.45 kg/m3
- mass density (298.15 K, x2 = 0.0492): 1461.44 ± 0.45 kg/m3
- mass density (298.15 K, x2 = 0.0724): 1453.01 ± 0.44 kg/m3
- mass density (298.15 K, x2 = 0.0942): 1444.79 ± 0.43 kg/m3
- mass density (298.15 K, x2 = 0.1282): 1431.7 ± 0.42 kg/m3
- mass density (298.15 K, x2 = 0.1586): 1419.63 ± 0.41 kg/m3
- mass density (298.15 K, x2 = 0.2444): 1383.3 ± 0.39 kg/m3
- mass density (298.15 K, x2 = 0.2956): 1359.97 ± 0.37 kg/m3
- mass density (298.15 K, x2 = 0.3383): 1339.33 ± 0.36 kg/m3
- mass density (298.15 K, x2 = 0.398): 1308.55 ± 0.33 kg/m3
- mass density (298.15 K, x2 = 0.4393): 1285.87 ± 0.32 kg/m3
- mass density (298.15 K, x2 = 0.4983): 1251.28 ± 0.3 kg/m3
- mass density (298.15 K, x2 = 0.5505): 1218.09 ± 0.28 kg/m3
- mass density (298.15 K, x2 = 0.6022): 1182.62 ± 0.26 kg/m3
- mass density (298.15 K, x2 = 0.6352): 1158.57 ± 0.25 kg/m3
- mass density (298.15 K, x2 = 0.6999): 1107.71 ± 0.23 kg/m3
- mass density (298.15 K, x2 = 0.75): 1064.61 ± 0.22 kg/m3
- mass density (298.15 K, x2 = 0.7996): 1018.34 ± 0.21 kg/m3
- mass density (298.15 K, x2 = 0.8193): 998.988 ± 0.21 kg/m3
- mass density (298.15 K, x2 = 0.8534): 963.915 ± 0.24 kg/m3
- mass density (298.15 K, x2 = 0.91): 900.813 ± 0.27 kg/m3
- mass density (298.15 K, x2 = 0.93): 876.963 ± 0.29 kg/m3
- mass density (298.15 K, x2 = 0.9542): 847 ± 0.32 kg/m3
- mass density (303.15 K, x2 = 0): 1469.61 ± 0.45 kg/m3
- mass density (303.15 K, x2 = 0.0298): 1458.95 ± 0.44 kg/m3
- mass density (303.15 K, x2 = 0.0492): 1451.95 ± 0.44 kg/m3
- mass density (303.15 K, x2 = 0.0724): 1443.55 ± 0.43 kg/m3
- mass density (303.15 K, x2 = 0.0942): 1435.38 ± 0.42 kg/m3
- mass density (303.15 K, x2 = 0.1282): 1422.37 ± 0.41 kg/m3
- mass density (303.15 K, x2 = 0.1586): 1410.37 ± 0.41 kg/m3
- mass density (303.15 K, x2 = 0.2444): 1374.3 ± 0.38 kg/m3
- mass density (303.15 K, x2 = 0.2956): 1351.14 ± 0.36 kg/m3
- mass density (303.15 K, x2 = 0.3383): 1330.66 ± 0.35 kg/m3
- mass density (303.15 K, x2 = 0.398): 1300.11 ± 0.33 kg/m3
- mass density (303.15 K, x2 = 0.4393): 1277.6 ± 0.31 kg/m3
- mass density (303.15 K, x2 = 0.4983): 1243.28 ± 0.29 kg/m3
- mass density (303.15 K, x2 = 0.5505): 1210.35 ± 0.27 kg/m3
- mass density (303.15 K, x2 = 0.6022): 1175.17 ± 0.25 kg/m3
- mass density (303.15 K, x2 = 0.6352): 1151.3 ± 0.24 kg/m3
- mass density (303.15 K, x2 = 0.6999): 1100.84 ± 0.22 kg/m3
- mass density (303.15 K, x2 = 0.75): 1058.07 ± 0.21 kg/m3
- mass density (303.15 K, x2 = 0.7996): 1012.15 ± 0.2 kg/m3
- mass density (303.15 K, x2 = 0.8193): 992.86 ± 0.21 kg/m3
- mass density (303.15 K, x2 = 0.8534): 958.1 ± 0.24 kg/m3
- mass density (303.15 K, x2 = 0.91): 895.41 ± 0.27 kg/m3
- mass density (303.15 K, x2 = 0.93): 871.71 ± 0.29 kg/m3
- mass density (303.15 K, x2 = 0.9542): 841.927 ± 0.32 kg/m3
- mass density (308.15 K, x2 = 0): 1460.03 ± 0.44 kg/m3
- mass density (308.15 K, x2 = 0.0298): 1449.38 ± 0.44 kg/m3
- mass density (308.15 K, x2 = 0.0492): 1442.4 ± 0.43 kg/m3
- mass density (308.15 K, x2 = 0.0724): 1434.04 ± 0.42 kg/m3
- mass density (308.15 K, x2 = 0.0942): 1425.89 ± 0.42 kg/m3
- mass density (308.15 K, x2 = 0.1282): 1412.96 ± 0.41 kg/m3
- mass density (308.15 K, x2 = 0.1586): 1401.04 ± 0.4 kg/m3
- mass density (308.15 K, x2 = 0.2444): 1365.22 ± 0.37 kg/m3
- mass density (308.15 K, x2 = 0.2956): 1342.24 ± 0.36 kg/m3
- mass density (308.15 K, x2 = 0.3383): 1321.9 ± 0.34 kg/m3
- mass density (308.15 K, x2 = 0.398): 1291.59 ± 0.32 kg/m3
- mass density (308.15 K, x2 = 0.4393): 1269.26 ± 0.31 kg/m3
- mass density (308.15 K, x2 = 0.4983): 1235.22 ± 0.28 kg/m3
- mass density (308.15 K, x2 = 0.5505): 1202.55 ± 0.27 kg/m3
- mass density (308.15 K, x2 = 0.6022): 1167.65 ± 0.25 kg/m3
- mass density (308.15 K, x2 = 0.6352): 1143.98 ± 0.24 kg/m3
- mass density (308.15 K, x2 = 0.6999): 1093.93 ± 0.22 kg/m3
- mass density (308.15 K, x2 = 0.75): 1051.48 ± 0.21 kg/m3
- mass density (308.15 K, x2 = 0.7996): 1005.91 ± 0.2 kg/m3
- mass density (308.15 K, x2 = 0.8193): 986.761 ± 0.21 kg/m3
- mass density (308.15 K, x2 = 0.8534): 952.24 ± 0.24 kg/m3
- mass density (308.15 K, x2 = 0.91): 889.975 ± 0.27 kg/m3
- mass density (308.15 K, x2 = 0.93): 866.422 ± 0.3 kg/m3
- mass density (308.15 K, x2 = 0.9542): 836.829 ± 0.32 kg/m3
- mass density (313.15 K, x2 = 0): 1450.41 ± 0.43 kg/m3
- mass density (313.15 K, x2 = 0.0298): 1439.8 ± 0.43 kg/m3
- mass density (313.15 K, x2 = 0.0492): 1432.84 ± 0.42 kg/m3
- mass density (313.15 K, x2 = 0.0724): 1424.49 ± 0.42 kg/m3
- mass density (313.15 K, x2 = 0.0942): 1416.4 ± 0.41 kg/m3
- mass density (313.15 K, x2 = 0.1282): 1403.52 ± 0.4 kg/m3
- mass density (313.15 K, x2 = 0.1586): 1391.68 ± 0.39 kg/m3
- mass density (313.15 K, x2 = 0.2444): 1356.1 ± 0.36 kg/m3
- mass density (313.15 K, x2 = 0.2956): 1333.29 ± 0.35 kg/m3
- mass density (313.15 K, x2 = 0.3383): 1313.09 ± 0.34 kg/m3
- mass density (313.15 K, x2 = 0.398): 1283.02 ± 0.31 kg/m3
- mass density (313.15 K, x2 = 0.4393): 1260.88 ± 0.3 kg/m3
- mass density (313.15 K, x2 = 0.4983): 1227.13 ± 0.28 kg/m3
- mass density (313.15 K, x2 = 0.5505): 1194.71 ± 0.26 kg/m3
- mass density (313.15 K, x2 = 0.6022): 1160.08 ± 0.24 kg/m3
- mass density (313.15 K, x2 = 0.6352): 1136.62 ± 0.23 kg/m3
- mass density (313.15 K, x2 = 0.6999): 1086.96 ± 0.21 kg/m3
- mass density (313.15 K, x2 = 0.75): 1044.85 ± 0.2 kg/m3
- mass density (313.15 K, x2 = 0.7996): 999.622 ± 0.2 kg/m3
- mass density (313.15 K, x2 = 0.8193): 980.633 ± 0.22 kg/m3
- mass density (313.15 K, x2 = 0.8534): 946.342 ± 0.24 kg/m3
- mass density (313.15 K, x2 = 0.91): 884.513 ± 0.27 kg/m3
- mass density (313.15 K, x2 = 0.93): 861.11 ± 0.3 kg/m3
- mass density (313.15 K, x2 = 0.9542): 831.705 ± 0.32 kg/m3
